Test [1] deals with cockroach GABA receptor. Briefly: whole-cell patch clamp, GABA-induced chloride current. It counts as cell-based, Periplaneta americana. The note with it: resting receptor; holding potential −60 mV, symmetric chloride; cited from earlier work. Background: Patch clamp records ionic current or voltage across a cell membrane.
Test [2] deals with rat GABAA receptor. The description is as above. Format: cell-based. The note with it: closed channel; rat dorsal root ganglion neurons; cited from earlier work.
Test [3] has as its system desensitizing GluCl (cockroach neurons). Kind of test: whole-cell patch clamp, glutamate-induced chloride current. It counts as cell-based, Periplaneta americana. Particulars: peak current measured; cited from earlier work.
The subject of test [4] is non-desensitizing GluCl (cockroach neurons). The test is described as above. Particulars: cited from earlier work. It counts as cell-based, Periplaneta americana.
Test [5] concerns desensitizing GluCl (cockroach neurons). Described as above. It counts as cell-based, Periplaneta americana. Particulars: 30 μM picrotoxinin; desensitizing component.

For `N#Cc1nn(-c2c(Cl)cc(C(F)(F)F)cc2Cl)c(N)c1[S+]([O-])C(F)(F)F` (stereo not drawn) [fipronil], the 50% inhibitory concentration (IC50) (as a rule, the concentration needed to halve the response being measured) in test [1] is 28 nM; in test [2], 1660 nM; in test [3], 801 ± 207 nM; in test [4] (steady-state current measured, use-dependent open-channel block), 10 ± 0.9 nM.
In the case of `C=C(C)[C@@H]1[C@H]2OC(=O)[C@@H]1[C@]1(O)C[C@H]3O[C@]34C(=O)O[C@H]2[C@]14C` [picrotoxinin], the IC50 in test [4] (non-desensitizing component) was 4100 ± 1000 nM. Besides, the % inhibition (as a rule, the change of the read-out against control, counted positive when it falls) at 30 μM in test [5] turned out to be 8.2 ± 2.9%.

The record behind these values is PMC2885805 (Pesticide biochemistry and physiology, 2010).
